Experimental data as given in US5741487A, “Mutanase-containing oral compositions” (priority 1996, dated 1998).
“Also recorded” adds a separate entry of the source. Like-named read-outs stand apart in the source and are kept apart here.

Legend:
Type in all cases: biochemical
[1] = tested on: Mutanase B (RM4 enzyme) from Bacillus sp. RM4 (FERM P-14837)
Protocol: (§1) To 100 μl of a 0.1M acetic acid buffer containing 3% mutan (pH 5) was added 100 μl of the mutanase solution. The mixture was incubated at 35° C. for 10 minutes with shaking at 100 strokes/min. Reaction was terminated by adding 0.4 ml of a 4,6-dinitrosalicylic acid (DNS) solution. The reaction mixture was centrifuged and 0.5 ml of the supernatant was transferred into a test tube. The tube was capped with a glass ball and kept in boiling water for 10 minutes. The tube was cooled with water for 5 minutes. Then 4 ml of distilled water was added and optical absorbance measured at 530 nm. A titer was determined using glucose as standard. The amount of enzyme which releases 1 μg of reducing sugar per minute is defined as one unit. It is noted that the enzymatic activity referred to below in conjunction with any of physicochemical properties is measured by this method.
(§2) Mutanase according to the invention was added to a 50 mM acetic acid buffer (pH 5) in an amount of 50 units/ml. Various inhibitors were individually added thereto in a final concentration of 1 mM. The solution was incubated at 35° C. for 30 minutes. The relative activity is expressed based on the assumption that the enzymatic activity of an inhibitor-free sample is 100%.

[2] = tested on: Mutanase A (RM1 enzyme) from Bacillus sp. RM1 (FERM P-14836)
Protocol: as §1, §2

[3] = tested on: Mutanase C (M7 enzyme) from Bacillus sp. M7 (FERM P-14835)
Protocol: as §1, §2

[4] = inhibitor final concentration 1 mM, 50 mM acetic acid buffer pH 5, 35° C., 30 minutes, inhibitor-free sample = 100%
[5] = mutan substrate, 1 mM inhibitor

Row | Structure (SMILES) | Relative activity (%) Mutanase B [1, 4] | effect of inhibitors on mutanase B (in words) [1, 5] | Relative activity (%) Mutanase A [2, 4] | effect of inhibitors on mutanase A (in words) [2, 5] | Relative activity (%) Mutanase C [3, 4] | effect of inhibitors on mutanase C (in words) [3, 5] | Relative activity (%) Mutanase B ([1]; pH 5) | Relative activity (%) Mutanase A ([2]; pH 5) | Relative activity (%) Mutanase C ([3]; pH 5)
1 | O=C(O)c1cc[c]([Hg][Cl])cc1 [PCMB, p-chloromercurybenzoic acid] | 14% | shows inhibitory effect; also recorded: strongly inhibits | 6% | shows inhibitory effect; also recorded: strongly inhibits | 11% | shows inhibitory effect; also recorded: strongly inhibits | – | – | –
2 | O=C(O)CN(CCN(CC(=O)O)CC(=O)O)CC(=O)O [2Na-EDTA] | – | – | – | – | – | – | 99% | 93% | 79%
3 | O=C(O)CI [Iodoacetic acid] | – | – | – | – | – | – | 99% | 100% | 87%
4 | CCN1C(=O)C=CC1=O [N-ethylmaleimide] | 98% | – | 100% | – | 94% | – | – | – | –
